One data set addresses TDP1 (Homo sapiens, UniProt Q9NUW8). The experiment in a line: Real-time fluorescence detection of TDP1 activity (FAM/BHQ1 oligonucleotide biosensor). The note with it: concentration that inhibits the activity of the enzyme by 50%; read-out: TDP1 IC50. Format: biochemical. The source says:
For real-time detection of TDP1 activity, we used the oligonucleotide biosensor based on the ability of TDP1 to remove fluorophore quenchers from the 3′-end of DNA [29]. The hexadecameric oligonucleotide carried 5(6)-carboxyfluorescein (FAM) at the 5′-end and fluorophore quencher BHQ1 (Black Hole Quencher-1) at the 3′-end. TDP1 inhibitors prevent the removal of fluorophore quenchers, thus reducing fluorescence intensity.
TDP1 activity was detected, as described by intensity measurement in a reaction of quencher removal from a fluorophore quencher–coupled DNA oligonucleotide catalyzed by TDP1. The reaction was carried out at different concentrations of inhibitors (the control samples contained 1% of DMSO). The reaction mixtures contained TDP1 buffer (50 mM Tris-HCl pH 8.0, 50 mM NaCl, and 7 mM β-mercaptoethanol), 50 nM biosensor, and an inhibitor being tested. Purified TDP1 (1.5 nM) triggered the reaction. The biosensor (5′-[FAM] AAC GTC AGGGTC TTC C [BHQ]-3′) was synthesized in the Laboratory of Nucleic Acid Chemistry at the Institute of Chemical Biology and Fundamental Medicine (Novosibirsk, Russia).
The reactions were incubated on a POLARstar OPTIMA fluorimeter (BMG LABTECH, GmbH, Ortenberg, Germany) to measure fluorescence every 60 s (ex. 485/em. 520 nm) during the linear phase (here, data from minute 0 to minute 8). The values of IC50 were determined using a six-point concentration response curve in a minimum of three independent experiments and were calculated using MARS Data Analysis 2.0 (BMG LABTECH, Ortenberg, Germany).

For the next data set, the target named is T1, recombinant human TDP2 (Homo sapiens, UniProt O95551).
T1 sequence (O95551 1-362): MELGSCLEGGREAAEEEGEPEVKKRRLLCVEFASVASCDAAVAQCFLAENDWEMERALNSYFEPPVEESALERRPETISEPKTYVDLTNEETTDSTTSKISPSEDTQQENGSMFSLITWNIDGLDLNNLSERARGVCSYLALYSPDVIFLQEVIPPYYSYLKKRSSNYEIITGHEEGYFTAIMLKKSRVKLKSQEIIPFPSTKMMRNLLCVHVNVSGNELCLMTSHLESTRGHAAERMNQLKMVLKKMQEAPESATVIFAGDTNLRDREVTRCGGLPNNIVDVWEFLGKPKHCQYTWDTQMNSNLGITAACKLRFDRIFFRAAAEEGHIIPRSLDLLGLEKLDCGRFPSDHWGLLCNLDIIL
As to the kind of experiment: Gel-based TDP2 activity assay (removal of 5'-tyrosine from oligonucleotide, PAGE). Format: biochemical. Further details: key to Tdp2 activity, c 200 µM / Tdp2 (inhibitor concentration 1 mM): TDP2 active (+); -: inactive (−). Particulars: for Tdp2 activity, c 200 µM: c 200 µM (Table S3 head); for Tdp2 (inhibitor concentration 1 mM) / remaining activity at 1000 µM: inhibitor 1 mM; for remaining activity at 1000 µM: residual enzyme activity, read-out: TDP2 (Inhibitor Concentration 1 mM), residual activity of TDP2. On the procedure:
We investigated the activity against the TDP2 enzyme for compounds 4–10, 12–15, and 17–19 (Table 1). TDP2 was tested for its ability to eliminate tyrosine residue from the 5’-end of the oligonucleotide substrate. The TDP2 reaction products were separated under denaturing conditions in polyacrylamide gel (PAGE). […] Note that as different assays formats were used for TDP1 and TDP2 inhibition, the value of these assays cannot be directly compared. A paper on derivatives of usnic acid as effective TDP1 inhibitors and mild inhibitors of TDP2 was recently published. […] More inhibitors of this enzyme have also been reported in the literature. Obviously, further work for increasing activity against TDP2 is needed.
The oligonucleotide with tyrosine residue on the 5′-end (5′-tyrosine-AAC GTC AGG GTC TTC C-FAM-3′) was used for the TDP2 enzyme activity assay. The TDP2 reaction products were separated under denaturing conditions in polyacrylamide gel (PAGE). The reaction was performed in a final volume of 20 μL using 100 nM substrate incubated with 200 nM recombinant human TDP2 in the absence or presence of the inhibitor for 10 min at 37 °C in a buffer containing 50 mM Tris-HCl, pH 8.0, 50 mM NaCl, 7 mM β-mercaptoethanol. Reactions were terminated by the addition of gel loading buffer contained 10% formamide, 7 M carbamide, 0.1% xylene cyanol, and 0,1% bromophenol blue. The samples were heated at 90 °C for 7 min before loading on the gel. The reaction products were separated by electrophoresis in a 20% denaturing PAGE with 7 M carbamide. A Typhoon FLA 9500 phosphorimager (GE Healthcare) was used for gel scanning and imaging. Each experiment was carried out in three independent replicates. The data were analyzed with QuantityOne 4.6.7 software.

The test system of data set [1] is HeLa cells. As to the kind of experiment: Influence on topotecan cytotoxicity (sensitization, combination index). Format: cell-based, human. On the procedure:
The inhibitors were studied, using their non-toxic concentration, to determine the cytotoxicity of topotecan, which is widely used in the treatment of cancer.
The concentration of these two compounds was increased to 10 μM and a more distinct effect was observed (Figure 3B). The combination index (CI) for different concentrations of topotecan and 5 at 10 μM was in the range 0.26–0.44, and for 8 at 10 μM, it was 0.18–0.30 (Supplementary Materials, Tables S1 and S2). CI value <1 indicates a synergistic effect of topotecan and compounds 5 and 8 [34].
The cell culture was monitored for three days.

Data set [2] has as its system HeLa cells. The data set is described as above. Format: cell-based, human. The note with it: compound 5 μM.
Data set [3] in a line: Intrinsic cytotoxicity, EZ4U assay, HeLa. The note with it: human, HeLa cells.
Method: (§1) Next, we examined the intrinsic cytotoxicity of the compounds on HeLa cervical cancer cells and human embryonic kidney derived cells HEK293A.
(§2) Cytotoxicity of the compounds to HeLa (human cervical cancer) and HEK293A (human embryonic kidney) cell lines was examined using the EZ4U Cell Proliferation and Cytotoxicity Assay (Biomedica, Vienna, Austria), according to the manufacturer’s protocols. The cells were grown in Iscove’s modified Dulbecco’s medium (IMDM) with 40 μg/mL gentamicin, 50 IU/mL penicillin, 50 μg/mL streptomycin (MP Biomedicals, Waltham, MA, USA), and 10% of fetal bovine serum (Biolot, Saint Petersburg, Russia) in a 5% CO2 atmosphere. After the formation of a 30–50%monolayer, the tested compounds were added to the medium. […] The volume of the added reagents was 1/100 of the total volume of the culture medium, and the amount of DMSO was 1% of the final volume. Control cells were grown in the presence of 1% DMSO. The cell culture was monitored for three days.
In data set [4] the test system is HeLa cells. As to the kind of experiment: Intrinsic cytotoxicity, EZ4U assay, HeLa.
Method: as §1, §2
The nature of data set [5]: Intrinsic cytotoxicity, EZ4U assay, HEK293A. The note with it: human, HEK293A cells.
Method: as §1, §2

Molecules are shown by their SMILES.

Sequence of TDP1 (Q9NUW8 whole entry): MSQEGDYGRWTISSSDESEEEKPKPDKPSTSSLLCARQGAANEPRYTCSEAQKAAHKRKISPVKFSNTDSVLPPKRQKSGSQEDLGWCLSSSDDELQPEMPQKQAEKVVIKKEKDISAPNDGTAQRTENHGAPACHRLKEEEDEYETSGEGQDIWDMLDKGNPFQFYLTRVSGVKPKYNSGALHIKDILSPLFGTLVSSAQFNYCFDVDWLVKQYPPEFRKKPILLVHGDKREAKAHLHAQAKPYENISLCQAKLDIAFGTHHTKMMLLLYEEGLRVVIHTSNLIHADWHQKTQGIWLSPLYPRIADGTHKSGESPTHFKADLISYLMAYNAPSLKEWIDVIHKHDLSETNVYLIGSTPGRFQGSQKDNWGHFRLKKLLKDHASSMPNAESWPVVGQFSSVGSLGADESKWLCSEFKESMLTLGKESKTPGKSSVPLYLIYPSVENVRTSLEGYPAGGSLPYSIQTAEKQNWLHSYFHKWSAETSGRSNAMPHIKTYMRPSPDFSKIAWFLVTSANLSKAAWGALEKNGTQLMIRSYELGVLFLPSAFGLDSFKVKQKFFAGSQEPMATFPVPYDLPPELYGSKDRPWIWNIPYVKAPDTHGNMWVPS

Consider `C[C@H](CCC(=O)NCCc1c[nH]c2ccccc12)[C@H]1CC[C@H]2[C@@H]3CC[C@@H]4C[C@H](OCc5ccccc5)CC[C@]4(C)[C@H]3C[C@H](O)[C@]12C` [Compound 5, N-(2″-(1H-Indol-3′-yl)ethyl)-3α-benzyloxy-12α-hydroxy-5β-cholane-24-amide], for which, on TDP1, the 50% inhibitory concentration (IC50) is 0.24 ± 0.01 µM. For the same molecule, the “Tdp2 activity, c 200 µM” value at recombinant human TDP2 is recorded as “+”. Moreover, at recombinant human TDP2, the “Tdp2 (inhibitor concentration 1 mM)” value is given as “+”. Besides, the remaining activity at 1000 µM at recombinant human TDP2 turned out to be 28 ± 5%. Further, the CI with HeLa cells [1] (Dose Tpc 0.3 + compound 10 μM) was determined as 0.4463; in the data set with HeLa cells [1] (Dose Tpc 0.5 + compound 10 μM), 0.3748; in the data set with HeLa cells [1] (Dose Tpc 1.0 + compound 10 μM), 0.3937; with HeLa cells [1] (Dose Tpc 2.0 + compound 10 μM), 0.2628; in the data set with HeLa cells [1] (Dose Tpc 4.0 + compound 10 μM), 0.4189. The Effect in the data set on HeLa cells [1] (Dose Tpc 0.3 + compound 10 μM) is given as 0.61; in the data set on HeLa cells [1] (Dose Tpc 0.5 + compound 10 μM) it was 0.76; in the data set on HeLa cells [1] (Dose Tpc 1.0 + compound 10 μM) it was 0.86; in the data set with HeLa cells [1] (Dose Tpc 2.0 + compound 10 μM), 0.95; in the data set on HeLa cells [1] (Dose Tpc 4.0 + compound 10 μM) it was 0.96. Moreover, the “sensitizing effect on topotecan cytotoxicity” value in the data set with HeLa cells [2] was “greatest sensitizing effect”. In addition, the CC50 at 72 h in data set [3] and in data set [5] was above 100 µM throughout. In the data set with HeLa cells [4] (at 100 μM), the HeLa cell death was determined as 40%.
Consider `C[C@H](CCC(=O)Nc1ccc(Br)cc1)[C@H]1CC[C@H]2[C@@H]3CC[C@@H]4C[C@H](OCc5ccccc5)CC[C@]4(C)[C@H]3C[C@H](O)[C@]12C` [Compound 8, N-(4′-Bromophenyl)-3α-benzyloxy-12α-hydroxy-5β-cholane-24-amide], for which, on TDP1, the IC50 was determined as 0.57 ± 0.3 µM. Further, the “Tdp2 activity, c 200 µM” value on recombinant human TDP2 was “+”. Moreover, on recombinant human TDP2, the “Tdp2 (inhibitor concentration 1 mM)” value was “+”. In addition, at recombinant human TDP2, the remaining activity at 1000 µM amounted to 47 ± 3%. For the same molecule, the CI came out at 0.2446 in the data set with HeLa cells [1] (Dose Tpc 0.5 + compound 10 μM), 0.2817 in the data set on HeLa cells [1] (Dose Tpc 1.0 + compound 10 μM), 0.1757 in the data set on HeLa cells [1] (Dose Tpc 2.0 + compound 10 μM) and 0.3046 in the data set with HeLa cells [1] (Dose Tpc 4.0 + compound 10 μM). Further, the Effect in the data set on HeLa cells [1] (Dose Tpc 0.5 + compound 10 μM) is reported as 0.67; in the data set with HeLa cells [1] (Dose Tpc 1.0 + compound 10 μM), 0.78; in the data set on HeLa cells [1] (Dose Tpc 2.0 + compound 10 μM), 0.92; in the data set on HeLa cells [1] (Dose Tpc 4.0 + compound 10 μM), 0.93. In addition, the “sensitizing effect on topotecan cytotoxicity” value in the data set on HeLa cells [2] is given as “greatest sensitizing effect”. The CC50 at 72 h in data set [3] and in data set [5] was above 100 µM in each case. The HeLa cell death is reported as 40% in the data set on HeLa cells [4] (at 20 μM) and “maintaining this level of toxicity” in the data set on HeLa cells [4] (at 100 μM).

The record behind these values is paper PMC8746696 (Molecules, 2021).
